Consider two compounds from patent US10905691B2, “Use of triazolo(4,5-d)pyrimidine derivatives for prevention and treatment of bacterial infection” (Universite de Liege, priority 2016, dated 2021).

Where two headings read alike, the source gives them in different places.

The test system of one assay is S. aureus ATCC 25904. Put plainly: MBC and MDK99.9 determination (CFU counting). The class given is cell-based, Staphylococcus aureus. The following applies: for MBC: Staphylococcus aureus, ATCC25904, cut-off 99.9% reduction in CFU. On the procedure:
(§1) Further experiments were conducted using different strains of S. aureus, as clinically relevant Gram-positive bacterial strains: ATCC 25904, ATCC 6538, methilcillin-resistant S. aureus (MRSA) ATCC BAA-1556, Glycopeptide intermediate-resistant (GISA) S. aureus Mu-50 (ATCC 700695) in order to determine the Minimal Inhibitory Concentration (MIC) which is the minimal concentration required to prevent bacterial growth; the Minimal Bactericidal Concentration (MBC) which determines the lowest concentration at which an antimicrobial agent kill a particular microorganism and a Minimum Duration for killing 99.9% bacteria (MDK99.9) which is a tolerance metric according to the EUCAST.
(§2) MBC and MDK99.9 determination: A single colony selected from the different strains of S. aureus is resuspended and cultured in the appropriate medium (TSB, or BHI) overnight (O/N) in aerobic conditions (37° C. with 220 rpm shaking), next day a 1:100 inoculum in the appropriate medium was incubated in aerobic conditions for 2 h. The culture is then challenged with triafluocyl at MIC concentration or higher concentrations. Bacterial growth was measured after different time intervals by counting the colony-forming units after plating appropriate culture dilutions on BHI agar plates. […] And the real time needed is defined as the MDK99.9. MBC for Triafluocyl against S. aureus ATCC 25904, ATCC 6538, methilcillin-resistant S. aureus (MRSA) ATCC BAA-1556, Glycopeptide intermediate-resistant (GISA), and S. aureus Mu-50 (ATCC 700695) were 20 μg/ml for each of them. MDK99.9 for Triafluocyl against S. aureus ATCC 25904, ATCC 6538, methilcillin-resistant S. aureus (MRSA) ATCC BAA-1556, Glycopeptide intermediate-resistant (GISA), and S. aureus Mu-50 (ATCC 700695) were 10, 6, 2, and 14 hours, respectively.
(§3) For MBC determination a 1:100 inoculum of an O/N culture (prepared like before) was incubated in aerobic conditions for 2 h in bacteria-specific medium. The culture was then challenged with Fluometacyl at the MIC concentration or higher. Bacterial growth was measured after different time intervals by counting the colony-forming units (CFU) after plating appropriate culture dilutions on bacteria-specific medium agar plates.

For assay [1], the system named is methilcillin-resistant S. aureus (MRSA) ATCC BAA-1556. Put plainly: MBC and MDK99.9 determination (CFU counting). The format is cell-based, Staphylococcus aureus. The following applies: for MBC: Staphylococcus aureus, cut-off 99.9% reduction in CFU. As to the method:
as §1, §2, §3

The subject of assay [2] is Glycopeptide intermediate-resistant (GISA) S. aureus Mu-50 (ATCC 700695). Description: MBC and MDK99.9 determination (CFU counting). The format is cell-based, Staphylococcus aureus. Particulars: for MBC: Staphylococcus aureus, ATCC700695, cut-off 99.9% reduction in CFU. On the procedure:
as §1, §2, §3

Assay [3] concerns Staphylococcus epidermidis (ATCC 35984, also known as RP62A). Put plainly: MIC determination (EUCAST, Mueller-Hinton broth). The class given is cell-based. On the procedure:
The Minimal Inhibitory Concentration (MIC) and the Minimal Bactericidal Concentration (MBC) of Triafluocyl were determined in Staphylococcus epidermidis (ATCC 35984, also known as RP62A) according to EUCAST (European Committee on Antimicrobial Susceptibility Testing) recommendations.
Briefly, a single colony grown on a Tryptic Soy Agar (TSA) plate was resuspended and cultured in Tryptic Soy Broth (TSB) overnight (O/N) in aerobic conditions (37° C. with 220 rpm shaking), next day a 1:50 inoculum in Mueller-Hinton broth (MHB) was incubated in aerobic conditions for 3 hr and an inoculum of 1:100 dilution, corresponding to 3×10^5 CFU/ml, was incubated in presence or absence of different concentrations of Triafluocyl in 1% DMSO (vehicle). After O/N growth the OD of each culture was measured at 600 nm in a spectrophotometer (OD600). The MIC represents the concentration at which there is no visible growth of bacteria, i.e. ΔOD at 600 nm equal to zero (blank is the medium alone).
The Minimal Inhibitory Concentration (MIC) and the Minimal Bactericidal Concentration (MBC) of Fluometacyl were determined on several gram-positive strains (Table 2) following EUCAST (European Committee on Antimicrobial susceptibility Testing) recommendations.
For MIC determination a single colony was resuspended and cultured in the appropriate bacteria-specific medium (TSB: Tryptic Soy Broth for S. aureus atcc 25904 and S. epidermidis and BHI: brain-heart infusion medium for all the other strains) overnight (O/N) in aerobic conditions (37° C. with 220 rpm shaking), next day a 1:100 inoculum was incubated in Mueller-Hinton broth (MHB) in aerobic conditions for 3 hr (OD600=0.08-0.1). A further inoculum, 1:300 dilution of the MHB culture, corresponding to 3×10^5 CFU/ml, was grown in presence or absence of different concentrations of Fluometacyl, 1% DMSO in MHB for 20 hr.

Assay [4] deals with Escherichia coli (ATCC 8739). Description: MBC determination with C12(ω7)Kβ12 (OAK). The class given is cell-based. Particulars: ATCC8739, in presence of 5 μg/ml OAK, read-out: Minimal Bactericidal Concentration (MBC). On the procedure: Viable count in the liquid culture is estimated by counting the colony forming units (c.f.u.) on a Luria-Bertani (LB) agar plate—after 24 h incubation at 37° C.—and calculating the c.f.u. per milliliter of the liquid culture (c.f.u./ml).
The Minimal Bactericidal Concentration (MBC) of Triafluocyl in presence of 5 μg/ml OAK against Escherichia coli (ATCC 8739) is equal to 10 μg/ml (FIG. 13B).
The Minimal Bactericidal Concentration (MBC) of Fluometacyl in presence of 5 μg/ml OAK against Escherichia coli (ATCC 8739) is equal to 5 μg/ml (FIG. 14B).

Assay [5] has as its system Escherichia coli (ATCC 8739). Description: MBC determination with polymyxin B nonapeptide (PMBN). The format is cell-based. The following applies: ATCC8739, in presence of 40 μg/ml PMBN, read-out: Minimal Bactericidal Concentration (MBC). As to the method: The MBC represents the lowest concentration of drug required to kill the bacteria in a liquid culture.
The Minimal Bactericidal Concentration (MBC) of Triafluocyl in presence of 40 μg/ml PMBN against Escherichia coli (ATCC 8739) is equal to 5 μg/ml (FIG. 11B).
The Minimal Bactericidal Concentration (MBC) of Fluometacyl in presence of 40 μg/ml PMBN against Escherichia coli (ATCC 8739) is equal to 5 μg/ml (FIG. 12B).

Where [6] appears, read: Staphylococcus epidermidis, ATCC35984, S. epidermidis, read-out: MIC.

`CCCSc1nc(N[C@@H]2C[C@H]2c2ccc(F)c(F)c2)c2nnn([C@@H]3C[C@H](O)[C@@H](O)[C@H]3O)c2n1` [Fluometacyl, (1S,2R,3S,4R)-4-[7-[[(1R,2S)-2-(3,4-Difluorophenyl)cyclopropyl]amino]-5-(propylthio)-3H-1,2,3-triazolo[4,5-d]pyrimidin-3-yl]-1,2,3-cyclopentanetriol]: the MBC was 38 µM with S. aureus ATCC 25904; 38 µM in assay [1]; 38 µM in assay [2] (S. aureus MU50 GISA); 5 µg/mL in assay [4]; 5 µg/mL in assay [5]. In assay [3] (setting [6]), the MIC amounted to 30 µM.

Regarding `CCCSc1nc(N[C@@H]2C[C@H]2c2ccc(F)c(F)c2)c2nnn([C@@H]3C[C@H](OCCO)[C@@H](O)[C@H]3O)c2n1` [Triafluocyl, (1S,2S,3R,5S)-3-[7-[(1R,2S)-2-(3,4-difluorophenyl)cyclopropylamino]-5-(propylthio)-3H-[1,2,3]-triazolo[4,5-d]pyrimidin-3-yl]-5-(2-hydroxyethoxy)-1,2-cyclopentanediol], the “MDK 99.9 Time (h) needed to kill 99.9% of the started inoculum” value amounted to 10 h in the assay with S. aureus ATCC 25904, 2 h in assay [1] and 14 h in assay [2] (S. aureus Mu50 GISA). Also, the MBC in the assay on S. aureus ATCC 25904 worked out at 20 µg/mL; in assay [1] it was 20 µg/mL; in assay [2] (S. aureus Mu50 GISA) it was 20 µg/mL; in assay [4], 10 µg/mL; in assay [5] it was 5 µg/mL. In addition, the MIC in assay [3] (S. epidermidis) was determined as 15 µg/mL; in assay [3] (setting [6]), 12 ± 3 µg/mL.
